pIC50: −log10 of the molar value. In brackets after ≈: the same amount, converted by molar mass. Where two headings read alike, the source gives them in different places.
Experiments:
[1] = tested on: P. falciparum Sierra Leone D6 clone; assay: WHO/TDR in vitro antimalarial screen (uptake of radiolabeled nucleic acid precursor), D6 clone; assay type: cell-based, Plasmodium falciparum; details: mefloquine-resistant, chloroquine-sensitive, second value in brackets not explained
Method: (§1) All test compounds are solubilized in DMSO and diluted 400 fold (to rule out a DMSO effect) in culture medium with plasma for a starting concentration of at least 12,500 ng/mL. Drugs are subsequently diluted five fold using the Cetus Pro/Pette system utilizing a range of concentrations from 0.8 ng/mL to 12,500 ng/mL. Fifty percent inhibitory concentrations are reported in ng/mL.
(§2) The D6 African P. falciparum clone is sensitive to chloroquine, pyrimethamine and sulfadoxine but resistant to mefloquine. The W2 Indochina P. falciparum clone is resistant to chloroquine, pyrimethamine and sulfadoxine but sensitive to mefloquine. The K1 P. falciparum is a resistant strain, where NF54 P. falciparum is a sensitive strain.

[2] = tested on: P. falciparum Indochina W2 clone; assay: WHO/TDR in vitro antimalarial screen, W2 clone; assay type: cell-based, Plasmodium falciparum; details: chloroquine-resistant, mefloquine-sensitive, second value in brackets not explained
Method: as §1, §2

P. falciparum K1 = assay: WHO/TDR in vitro antimalarial screen, K1; assay type: cell-based, Plasmodium falciparum; details: K1, chloroquine-resistant
Method: (§3) […]. All test compounds are solubilized in DMSO and diluted 400 fold (to rule out a DMSO effect) in culture medium with plasma for a starting concentration of at least 12,500 ng/mL. Drugs are subsequently diluted five fold using the Cetus Pro/Pette system utilizing a range of concentrations from 0.8 ng/mL to 12,500 ng/mL. Fifty percent inhibitory concentrations are reported in ng/mL.
as §2

P. falciparum NF54 = assay: WHO/TDR in vitro antimalarial screen, NF54; assay type: cell-based, Plasmodium falciparum; details: NF54, chloroquine-sensitive, second value in brackets not explained
Method: as §3, §2

P. berghei N = assay: in vivo Peter's 4-day antimalarial test in mice, P. berghei N; design: P. berghei N P.O. ED50 / P. berghei N P.O. ED90: unit not given beside the values; details: mice, 4-day test; for P. berghei N P.O. ED50 / P. berghei N P.O. ED90 / P. berghei N S.C. ED50 / P. berghei N S.C. ED90: unit not given; for ED50: Plasmodium berghei, 96 h, unit inferred
Method: (§4) The parasitemia is determined on the day following the last treatment—day 4 to determine qualitatively the presence and degree of activity at the screening dose.

P. yoelli ssp. NS = assay: in vivo 4-day antimalarial test in mice, P. yoelli ssp. NS; details: subcutaneous
Method: as §4

[3] = tested on: P. falciparum D6 (Sierra Leone); assay: antimalarial parasite LDH (pLDH) assay, D6; assay type: cell-based, Plasmodium falciparum; details: for pIC50: pLDH assay, Table 5, read-out: P. falciparum (D6 Clone) IC50; for P. falciparum (IC50) D6: LDH assay, Table 6; for S. I. (D6): Selectivity Index = IC50 (Vero cells)/IC50 (P. falciparum)
Method: (§5) The Thad Cochran National Center for Natural Products Research (University of Mississippi) in vitro antimalarial screen was conducted using an enzyme assay for detection of P. falciparum (see procedure below). This assay is based on the observation that lactate dehydrogenase (LDH) of P. falciparum is distinguishable from host LDH activity. P. falciparum LDH rapidly uses 3-acetyl pyridine nicotinamide adenine dinucleotide (APAD) as a coenzyme in the biotransformation of […].^38 The same process is carried out in human red blood cells at a very slow rate.
(§6) The “Antimalarial parasite LDH assay” is currently being conducted according the following procedure: prepare a suspension of RBC with a 2% parasitemia and 2% hematocrit in malaria complete medium. Dispense 200 μl aliquots of this suspension into each well of a 96 well microtiter plate. Add 10 μl volumes of the drugs to be tested in duplicate to the appropriate wells. Place the plates into humidified chamber and flush the cultures with a gas mixture consisting of 90% N2, 5% O2, and 5% CO2. Transfer the chamber containing the plates to an incubator, and incubate for 48 hours at 37° C. After 48 hours add 100 μl aliquots of the Malstat™ reagent to each well of a new 96-well microtiter plate Resuspend the cultures from the assay plate by mixing each well up and down several times. Remove 20 μl from each well of the resuspend culture and add to the plate containing the Malstat™ reagent. Incubate the plates at room temperature for 30 minutes. After 30 minutes, add to each well 20 μl of the 1:1 mixture of the NBT/PES solution (2 mg/ml and 0.1 mg/ml, respectively). Incubate the plates in the dark for 1 hour. Add 100 μl of 5% acetic acid solution to stop the reaction. The plate is then read at an endpoint of approximately 650 nm. The dose response curves are generated using Microsoft Excel.
(§7) Antimalarial activity of the analogues was determined in vitro on chloroquine sensitive (D)6, Sierra Leone) and resistant (W2, IndoChina) strains of Plasmodium falciparum. The 96 well microplate assay is based on evaluation of the effect of the compounds on the growth of asynchronous cultures of P. falciparum, determined by the assay of parasite lactate dehydrogenase (pLDH) activity.^28 The appropriate dilutions of the compounds were prepared in DMSO or RPMI-1640 medium and added to the cultures of P. falciparum (2% hematocrit, 2% parasitemia) set up in clear flat bottomed 96 well plates. The plates were placed into the humidified chamber and flushed with a gas mixture of 90% N2, 5% CO2 & 5% O2. The cultures were incubated at 37° C. for 48 hours. Growth of the parasite in each well was determined by pLDH assay using Malstat® reagent. The medium and RBC controls were also set-up in each plate. The standard antimalarial agents, chloroquine and artemisinin, were used as the positive controls while DMSO was tested as the negative control.

[4] = tested on: P. falciparum W2 (IndoChina); assay: antimalarial parasite LDH (pLDH) assay, W2; assay type: cell-based, Plasmodium falciparum; details: for pIC50: pLDH assay, Table 5, read-out: P. falciparum (W2 Clone) IC50; for P. falciparum (IC50) W2: LDH assay, Table 6; for S. I. (W2): Selectivity Index = IC50 (Vero cells)/IC50 (P. falciparum)
Method: as §5, §6
as §7, with “plate.” for “plate. The standard antimalarial agents, chloroquine and artemisinin, were used as the positive controls while DMSO was tested as the negative control.”

[5] = tested on: Leishmania donovani promastigotes expressing firefly luciferase; assay: antileishmanial luciferase assay on transgenic promastigotes; assay type: cell-based; details: Table 1 (artemisinin analogues); NA = not active up to 125 μg/ml; read-out: Antileishmanial activity IC50
Method: Antileishmanial activity of the compounds was tested on a transgenic cell line of Leishmania donovani promastigotes expressing firefly luciferase.^29a In a 96 well microplate assay, compounds with appropriate dilution were added to the leishmania promastigotes culture (2×10^6 cell/mL). The plates were incubated at 26° C. for 72 hours and growth of leishmania promastigotes was determined by luciferase assay with Steady Glo® reagent (Promega, USA). Pentamidine and Amphotericin B were used as standard antileishmanial agents. The analogues were simultaneously tested for cytotoxicity on VERO cells (monkey kidney fibroblast) by Neutral Red assay.^29b IC50 values for the compounds were computed from the growth inhibition curve.

Molecule	P. falciparum (IC50) D6 [1]	P. falciparum (IC50) W2 [2]	P. falciparum (IC50) K1 (P. falciparum K1) [µg/mL]	P. falciparum (IC50) NF54 (P. falciparum NF54)	P. berghei N P.O. ED50 (P. berghei N; oral)	P. berghei N P.O. ED90 (P. berghei N; oral)	P. berghei N S.C. ED50 (P. berghei N; subcutaneous)	P. berghei N S.C. ED90 (P. berghei N; subcutaneous)	P. yoelli ssp. NS (S.C.) ED50 (P. yoelli ssp. NS; unit inferred) [mg/kg]	P. falciparum (IC50) D6 [3] [µg/mL]	S. I. (D6) ([3]; D6)	P. falciparum (IC50) W2 [4] [µg/mL]	S. I. (W2) ([4]; W2)	also measured
CCN(CC)CCCC(C)Nc1ccnc2cc(Cl)ccc12 (stereo not shown) [Chloroquine, chloroquine, reference compound]	7.58 ng/mL	118.04 ng/mL	0.07901	7.36 ng/mL	1.7	3.1	1.5	3	1.6					P. yoelli ssp. NS (S.C.) ED90 (P. yoelli ssp. NS; unit inferred): 28 mg/kg; pIC50 [3]: 7.78; pIC50 [4]: 6.63
(+)-Octahydro-3,6α-dimethyl-3,12-epoxy-9β-(3′-(3,5-bistrifluoromethylphenyl)propyl)-12H-pyrano[4,3j]-1,2-benzodioxepin [Compound 40]		7.11 ng/mL			<10	<10	<10	<10		0.012	>40	0.0095	>50	
(+)-Octahydro-3,6α-dimethyl-3,12-epoxy-9β-(3′-(m-trifluoromethylphenyl)propyl)-12H-pyrano[4,3j]-1,2-benzodioxepin [Compound 38]	8.48 ng/mL	30.32 ng/mL	0.012	35.60 (30.76) ng/mL	1.25 (0.5-2.3)	4.4 (1.3-6.2)	0.4 (0.2-1.2)	0.75 (0.4-2.1)		0.0087	>55.0	0.011	>43	P. yoelli ssp. NS (S.C.) ED50 (P. yoelli ssp. NS; unit not given): 0.60 (0.3-0.9); P. yoelli ssp. NS (S.C.) ED90 (P. yoelli ssp. NS; unit not given): 1.00 (0.5-1.5); pIC50 [3]: 7.56; pIC50 [4]: 7.95; pIC50 [5]: 5.72
CC1CCC2C(CCCc3ccc(Cl)cc3)COC3OC4(C)CCC1C32OO4 (stereo not shown) [Compound 11]	1.9 (1.9) ng/mL	3.0 (2.2) ng/mL			1.0	2.1	0.7	1.2	0.6					P. yoelli ssp. NS (S.C.) ED90 (P. yoelli ssp. NS; unit inferred): 1 mg/kg
quinine [reference compound]			0.0996	9.08 ng/mL	71	118	25	190	128					
(+)-Octahydro3,6α-dimethyl-3,12-epoxy-9β-(3′-(3,5-difluorophenyl)propyl)-12H-pyrano[4,3j]-1,2-benzodioxepin [Compound 41]		6.70 ng/mL			<10	<10	<10	<10		0.0038	>125	0.0023	>207	
OC(c1cc(C(F)(F)F)nc2c(C(F)(F)F)cccc12)C1CCCCN1 (stereo not shown) [Mefloquine, mefloquine, reference compound]						2.3		3.8						IC50 ([1]; Plasmodium falciparum): 0.0456 µg/mL (≈ 0.12 µM); IC50 ([2]; Plasmodium falciparum): 0.0341 µg/mL (≈ 0.09 µM); IC50 (P. falciparum K1; Plasmodium falciparum): 0.0203 µg/mL (≈ 0.0538 µM); IC50 (P. falciparum NF54; Plasmodium falciparum): 0.0354 µg/mL (≈ 0.0935 µM); ED50 (P. berghei N; oral, read-out: P. berghei N P.O. ED50): 1.1 mg/kg; ED50 (P. berghei N; sc, subcutaneous, read-out: P. berghei N S.C. ED50): 1.5 mg/kg; ED50 (P. yoelli ssp. NS; Plasmodium yoelii, sc, unit inferred, read-out: P. yoelli ssp. NS (S.C.) ED50): 2.3 mg/kg; pIC50 ([3]; Plasmodium falciparum, D6): 6.77; pIC50 ([4]; Plasmodium falciparum, W2): 6.71

Source: patent publication US20050240034A1, “Artemisinin-based peroxide compounds as broad spectrum anti-infective agents” (priority 2002, published 2005)
